Reference: patent US11279733B2, “Peptide antibiotics” (priority 2017, dated 2022)
≈ marks a conversion by molar mass, not a printed value. Where two headings read alike, the source gives them in different places. Positions of bridges follow the written chain, without caps; N, C: chain ends. Non-standard residues stand in square brackets, D forms with d. Residues, ends and D or L forms follow the SMILES beside them. *: point of attachment. Bip = N[C@@H](Cc1ccc(-c2ccccc2)cc1)C(=O)O; Decanoyl(3R-OH) = CCCCCCC[C@@H](O)CC(=O)*; dBip = N[C@H](Cc1ccc(-c2ccccc2)cc1)C(=O)O; dDab = NCC[C@@H](N)C(=O)O; Dab = NCC[C@H](N)C(=O)O; Dap = NC[C@H](N)C(=O)O

Key:
in vitro = settings: human
How it was run: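 HK2 cells were seeded at 2000 per well in DMEM/F12 with 10% FBS and left to attach for 24 h at 37 °C, 5% CO2. They were then exposed for 24 h to 3-fold peptide dilutions starting from 600 μM solutions in quadruplicate. LDH release was read at 450 nm, and CC50 was fitted from dose-response curves.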

[1] = tested on: P. aeruginosa GN_105, PmxR
How it was run: (§1)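 Mid-log cultures grown in Mueller Hinton broth at 37° C were tested by 2-fold broth microdilution at 5×10^5 CFU/mL final. Compounds were dissolved in water and tested over a final range of 32 to 0.015 μg/mL.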

[2] = tested on: K. pneumoniae GN_102 PmxR
How it was run: as §1

K. pneumoniae ATCC 13883 = tested on: K. pneumoniae ATCC 13883
How it was run: as §1

[3] = tested on: K. pneumoniae GN_106, PmxR
How it was run: as §1

[4] = tested on: P. aeruginosa GN_043, PmxR
How it was run: as §1

A. baumannii ATCC 19606 = tested on: A. baumannii ATCC 19606
How it was run: as §1

E. coli ATCC 25922 = tested on: E. coli ATCC 25922
How it was run: as §1

P. aeruginosa ATCC 27853 = tested on: P. aeruginosa ATCC 27853
How it was run: as §1

[5] = tested on: S. aureus ATCC 25923, MSSA
How it was run: as §1

A. baumannii GN_093 PmxR = tested on: A. baumannii GN_093 PmxR
How it was run: as §1

[6] = tested on: K. pneumoniae ATCC 700603, MDR
How it was run: as §1

[7] = tested on: K. pneumoniae ATCC BAA-2146, NDM-1 pos
How it was run: as §1

SMILES | CC50 at 24 h (in vitro) | MIC P. aeruginosa GN_105, PmxR ([1]; GN 105, PmxR) | MIC K. pneumoniae GN_102 PmxR ([2]; GN 102 PmxR) | MIC K. pneumoniae ATCC 13883 (K. pneumoniae ATCC 13883; ATCC 13883) | MIC K. pneumoniae GN_106, PmxR ([3]; GN 106, PmxR) | MIC P. aeruginosa GN_043, PmxR ([4]; P. aeruginosa GN_043, PmxR) | MIC A. baumannii ATCC 19606 (A. baumannii ATCC 19606; ATCC 19606) | MIC E. coli ATCC 25922 (E. coli ATCC 25922; ATCC 25922) | MIC P. aeruginosa ATCC 27853 (P. aeruginosa ATCC 27853; ATCC 27853) | MIC S. aureus ATCC 25923, MSSA ([5]; ATCC 25923) | MIC A. baumannii GN_093 PmxR (A. baumannii GN_093 PmxR; GN 093 PmxR) | MIC K. pneumoniae ATCC 700603, MDR ([6]; ATCC 700603) | MIC K. pneumoniae ATCC BAA-2146, NDM-1 pos ([7]; ATCC BAA-2146) | MIC P. aeruginosa GN_043, PmxR ([4]; polymyxin-resistant) | other results
CCCCCCC[C@@H](O)CC(=O)N[C@H](CCN)C(=O)N[C@H]1CCNC(=O)[C@H](CC(C)C)NC(=O)[C@H](CCN)NC(=O)[C@H](CCN)NC(=O)[C@H](CC(C)C)NC(=O)[C@@H](Cc2ccc(-c3ccccc3)cc2)NC(=O)[C@H](CCN)NC1=O [compound 5010, 3(R)OH-nC9CO-D-Dab-cyc[L-Dab-L-Dab-D-Bip-L-Leu-L-Dab-L-Dab-L-Leu]] ({Decanoyl(3R-OH)}-[dDab][Dab][Dab][dBip]L[Dab][Dab]L; lactam 2-C) | 75 µM | 2 µg/mL (≈ 1.78 µM) | 4 µg/mL (≈ 3.57 µM) | 2 µg/mL (≈ 1.78 µM) | 2 µg/mL (≈ 1.78 µM) | 2 µg/mL (≈ 1.78 µM) | 4 µg/mL (≈ 3.57 µM) | 2 µg/mL (≈ 1.78 µM) | 4 µg/mL (≈ 3.57 µM) | 2 µg/mL (≈ 1.78 µM) | 4 µg/mL (≈ 3.57 µM) | 4 µg/mL (≈ 3.57 µM) | 4 µg/mL (≈ 3.57 µM) | – | –
CCCCCCC[C@@H](O)CC(=O)N[C@H](CCN)C(=O)N[C@H]1CCNC(=O)[C@H](Cc2ccccc2)NC(=O)[C@H](CN)NC(=O)[C@H](CCN)NC(=O)[C@H](CC(C)C)NC(=O)[C@@H](Cc2ccc(-c3ccccc3)cc2)NC(=O)[C@H](CCN)NC1=O [compound 5384, 3(R)OH-nC9CO-D-Dab-cyc[L-Dab-L-Dab-D-Bip-L-Leu-L-Dab-L-Dap-L-Phe]] ({Decanoyl(3R-OH)}-[dDab][Dab][Dab][dBip]L[Dab][Dap]F; lactam 2-C) | 24 µM | 4 µg/mL (≈ 3.51 µM) | 16 µg/mL (≈ 14 µM) | 4 µg/mL (≈ 3.51 µM) | 8 µg/mL (≈ 7.01 µM) | – | 8 µg/mL (≈ 7.01 µM) | 4 µg/mL (≈ 3.51 µM) | 4 µg/mL (≈ 3.51 µM) | 4 µg/mL (≈ 3.51 µM) | 4 µg/mL (≈ 3.51 µM) | 8 µg/mL (≈ 7.01 µM) | 4 µg/mL (≈ 3.51 µM) | 4 µg/mL (≈ 3.51 µM) | –
CCCCCCC[C@@H](O)CC(=O)N[C@H](CCN)C(=O)N[C@H]1CCNC(=O)[C@H](Cc2ccccc2)NC(=O)[C@H](CN)NC(=O)[C@H](CCN)NC(=O)[C@H](CC(C)C)NC(=O)[C@@H](Cc2ccccc2)NC(=O)[C@H](CCN)NC1=O [compound 5385, 3(R)OH-nC9CO-D-Dab-cyc[L-Dab-L-Dab-D-Phe-L-Leu-L-Dab-L-Dap-L-Phe]] ({Decanoyl(3R-OH)}-[dDab][Dab][Dab][dF]L[Dab][Dap]F; lactam 2-C) | 41 µM | 2 µg/mL (≈ 1.88 µM) | 8 µg/mL (≈ 7.52 µM) | 4 µg/mL (≈ 3.76 µM) | 16 µg/mL (≈ 15 µM) | – | 8 µg/mL (≈ 7.52 µM) | 4 µg/mL (≈ 3.76 µM) | 2 µg/mL (≈ 1.88 µM) | 8 µg/mL (≈ 7.52 µM) | 16 µg/mL (≈ 15 µM) | 8 µg/mL (≈ 7.52 µM) | 4 µg/mL (≈ 3.76 µM) | 2 µg/mL (≈ 1.88 µM) | –
CCCCCCC[C@@H](O)CC(=O)N[C@H](CCN)C(=O)N[C@H]1CCNC(=O)[C@H]([C@@H](C)O)NC(=O)[C@H](CN)NC(=O)[C@H](CCN)NC(=O)[C@H](CC(C)C)NC(=O)[C@@H](Cc2ccccc2)NC(=O)[C@H](CCN)NC1=O [compound 5386, 3(R)OH-nC9CO-D-Dab-cyc[L-Dab-L-Dab-D-Phe-L-Leu-L-Dab-L-Dap-L-Thr]] ({Decanoyl(3R-OH)}-[dDab][Dab][Dab][dF]L[Dab][Dap]T; lactam 2-C) | 154 µM | – | – | – | – | 1 µg/mL (≈ 0.982 µM) | – | – | – | – | – | – | – | – | MIC P. aeruginosa GN_105, PmxR ([1]; P. aeruginosa GN_105, PmxR): 4 µg/mL (≈ 3.93 µM); MIC K. pneumoniae GN_102 PmxR ([2]; K. pneumoniae GN_102 PmxR): 32 µg/mL (≈ 31.4 µM); MIC K. pneumoniae ATCC 13883 (K. pneumoniae ATCC 13883; K. pneumoniae ATCC 13883): 16 µg/mL (≈ 15.7 µM); MIC K. pneumoniae GN_106, PmxR ([3]; K. pneumoniae GN_106, PmxR): >32 µg/mL; MIC A. baumannii ATCC 19606 (A. baumannii ATCC 19606; A. baumannii ATCC 19606): >32 µg/mL; MIC E. coli ATCC 25922 (E. coli ATCC 25922; E. coli ATCC 25922): 2 µg/mL (≈ 1.96 µM); MIC P. aeruginosa ATCC 27853 (P. aeruginosa ATCC 27853; P. aeruginosa ATCC 27853): 4 µg/mL (≈ 3.93 µM); MIC S. aureus ATCC 25923, MSSA ([5]; S. aureus ATCC 25923, MSSA): >32 µg/mL; MIC A. baumannii GN_093 PmxR (A. baumannii GN_093 PmxR; A. baumannii GN_093 PmxR): >32 µg/mL; MIC K. pneumoniae ATCC 700603, MDR ([6]; K. pneumoniae ATCC 700603, MDR): 2 µg/mL (≈ 1.96 µM); MIC K. pneumoniae ATCC BAA-2146, NDM-1 pos ([7]; K. pneumoniae ATCC BAA-2146, NDM-1 pos): 4 µg/mL (≈ 3.93 µM)
CCCCCCC[C@@H](O)CC(=O)N[C@H](CCN)C(=O)N[C@H]1CCNC(=O)[C@H]([C@@H](C)O)NC(=O)[C@H](CCN)NC(=O)[C@H](CCN)NC(=O)[C@H](CC(C)C)NC(=O)[C@@H](Cc2ccccc2)NC(=O)[C@H](CCN)NC1=O [compound 5387, 3(R)OH-nC9CO-D-Dab-cyc[L-Dab-L-Dab-D-Phe-L-Leu-L-Dab-L-Dab-L-Thr]] ({Decanoyl(3R-OH)}-[dDab][Dab][Dab][dF]L[Dab][Dab]T; lactam 2-C) | 210 µM | >32 µg/mL | >32 µg/mL | 2 µg/mL (≈ 1.94 µM) | >32 µg/mL | – | 8 µg/mL (≈ 7.75 µM) | 2 µg/mL (≈ 1.94 µM) | 1 µg/mL (≈ 0.969 µM) | >32 µg/mL | >32 µg/mL | 2 µg/mL (≈ 1.94 µM) | 1 µg/mL (≈ 0.969 µM) | 2 µg/mL (≈ 1.94 µM) | –
CCCCCCC[C@@H](O)CC(=O)N[C@H](CCN)C(=O)N[C@H]1CCNC(=O)[C@H]([C@@H](C)O)NC(=O)[C@H](CCNC(=O)[C@@H](N)CCCNC(=N)N)NC(=O)[C@H](CCN)NC(=O)[C@H](CC(C)C)NC(=O)[C@@H](Cc2ccccc2)NC(=O)[C@H](CCN)NC1=O [compound 5603, 3(R)OH-nC9CO-D-Dab-cyc[L-Dab-L-Dab-D-Phe-L-Leu-L-Dab-L-Dab(L-Arg)-L-Thr]] ({Decanoyl(3R-OH)}-[dDab][Dab][Dab][dF]L[Dab][Dab](Arg)T; lactam 2-C) | 103 µM | 32 µg/mL (≈ 26.9 µM) | >32 µg/mL | >32 µg/mL | >32 µg/mL | 32 µg/mL (≈ 26.9 µM) | >32 µg/mL | 32 µg/mL (≈ 26.9 µM) | 8 µg/mL (≈ 6.73 µM) | >32 µg/mL | >32 µg/mL | 16 µg/mL (≈ 13.5 µM) | >32 µg/mL | – | –
CCCCCCC[C@@H](O)CC(=O)N[C@H](CCN)C(=O)N[C@H]1CCNC(=O)[C@H]([C@@H](C)O)NC(=O)[C@H](CCN)NC(=O)[C@H](CCN)NC(=O)[C@H](Cc2ccc(-c3ccccc3)cc2)NC(=O)[C@@H](Cc2ccccc2)NC(=O)[C@H](CCN)NC1=O [compound 5607, 3(R)OH-nC9CO-D-Dab-cyc[L-Dab-L-Dab-D-Phe-L-Bip-L-Dab-L-Dab-L-Thr]] ({Decanoyl(3R-OH)}-[dDab][Dab][Dab][dF][Bip][Dab][Dab]T; lactam 2-C) | 19 µM | 2 µg/mL (≈ 1.75 µM) | 32 µg/mL (≈ 28 µM) | 16 µg/mL (≈ 14 µM) | 32 µg/mL (≈ 28 µM) | 2 µg/mL (≈ 1.75 µM) | 8 µg/mL (≈ 7 µM) | 8 µg/mL (≈ 7 µM) | 4 µg/mL (≈ 3.5 µM) | 4 µg/mL (≈ 3.5 µM) | >32 µg/mL | 4 µg/mL (≈ 3.5 µM) | 4 µg/mL (≈ 3.5 µM) | – | –
